In patent publication EP4603105A1, “PHARMACEUTICAL COMPOSITION CONTAINING CYCLIC COMPOUND HAVING SELECTIVE KRAS INHIBITORY EFFECT AGAINST HRAS AND NRAS” (CHUGAI SEIYAKU KABUSHIKI KAISHA, priority 2022, dated 2024):
Where a SMILES comes first, the peptide text is derived from it. Bridges are numbered along the chain shown (N, C = ends). [ ]: non-standard residue; d: D form. The star is where a group is joined. hPhe(3-Cl-4-CF3) = N[C@@H](CCc1ccc(C(F)(F)F)c(Cl)c1)C(=O)O; NPrPhe(4-CF3) = CCCN[C@@H](Cc1ccc(C(F)(F)F)cc1)C(=O)O; NMeGly(cPent) = CN[C@H](C(=O)O)C1CCCC1; Pro(4,4-F2) = O=C(O)[C@@H]1CC(F)(F)CN1; NMeD = CN[C@@H](CC(=O)O)C(=O)O; NMeNva = CCC[C@H](NC)C(=O)O; Morpholide = C1CN(*)CCO1; Ac5c = NC1(C(=O)O)CCCC1; Sar = CNCC(=O)O

Legend:
HRAS wild-type protein = HRAS wild-type protein (Homo sapiens, UniProt P01112); assay: Binding to HRAS by surface plasmon resonance (SPR), KD and KD ratio to KRAS
Sequence of HRAS wild-type protein (P01112 whole entry): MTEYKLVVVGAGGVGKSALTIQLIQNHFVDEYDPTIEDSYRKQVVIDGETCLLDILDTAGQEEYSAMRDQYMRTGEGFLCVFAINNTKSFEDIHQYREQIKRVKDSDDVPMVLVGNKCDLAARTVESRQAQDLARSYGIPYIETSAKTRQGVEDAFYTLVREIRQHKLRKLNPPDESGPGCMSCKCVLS
Outline: (§1)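 Affinity is measured by surface plasmon resonance at 30°C against captured, GDP-loaded RAS carrying a biotinylated Avi tag. Compounds are titrated by single-cycle kinetics, and KD comes from a 1:1 fit.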

[1] = target: GDP-bound NRAS wild-type protein (Homo sapiens, UniProt P01111); assay: Binding to NRAS by surface plasmon resonance (SPR), KD and KD ratio to KRAS
Sequence of GDP-bound NRAS wild-type protein (P01111 whole entry): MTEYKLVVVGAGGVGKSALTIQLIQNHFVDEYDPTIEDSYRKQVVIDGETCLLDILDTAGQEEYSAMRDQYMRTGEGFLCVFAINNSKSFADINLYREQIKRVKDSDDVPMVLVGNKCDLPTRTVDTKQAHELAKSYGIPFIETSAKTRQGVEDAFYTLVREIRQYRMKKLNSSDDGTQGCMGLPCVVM
Outline: as §1

[2] = test system: human lung cancer strain NCI-H441; assay type: cell-based
Outline: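 Readout: […] after the ATP-based reagent. Compound: serial dilutions in dimethyl sulfoxide.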

[3] = ratio of the KD value with respect to HRAS wild-type protein to the KD value with respect to KRAS
[4] = ratio of the KD value with respect to GDP-bound NRAS wild-type protein to the KD value with respect to KRAS
[5] = ratio of KD value for HRAS wild-type protein to KD value for KRAS (SPR)
[6] = ratio of KD value for GDP-bound NRAS wild-type protein to KD value for KRAS (SPR)
[7] = ratio of KD for HRAS wild-type protein to KD for KRAS
[8] = ratio of KD for GDP-bound NRAS wild-type protein to KD for KRAS

| SMILES | HRAS /KRAS (HRAS wild-type protein; [3]) | NRAS /KRAS [1, 4] | IC50 [2] [µM] | HRAS /KRAS (HRAS wild-type protein; [5]) | NRAS /KRAS [1, 6] | HRAS /KRAS (HRAS wild-type protein; [7]) | NRAS /KRAS [1, 8] |
| --- | --- | --- | --- | --- | --- | --- | --- |
| CCO[C@@H]1C[C@H]2C(=O)NC3(CC(C)(C)C3)C(=O)N(C)[C@@H](C(CC)CC)C(=O)N(C)[C@H](C(=O)N(C)C)CC(=O)N(C)[C@@H](C)C(=O)N[C@@H]([C@@H](C)CC)C(=O)N(C)CC(=O)N(C)[C@H]3C/C=C\CCN(C3=O)[C@@H](Cc3ccc(C)cc3)C(=O)N(C)CC(=O)N[C@@H](CCc3ccc(C(F)(F)F)c(Cl)c3)C(=O)N2C1 [PP2150] | A (a compound having 10 or more and less than 20 is denoted as A) | AA (a compound having 20 or more is denoted as AA) | 0.058 |  |  |  |  |
| CCCN(C)C(=O)[C@@H]1CC(=O)N(C)[C@@H](CC(F)(F)F)C(=O)N[C@@H]([C@@H](C)CC)C(=O)N(C)CC(=O)N(C)[C@H]2C/C=C\CCN(C2=O)[C@@H](Cc2ccc(C(F)(F)F)cc2)C(=O)N(C)CC(=O)N[C@@H](CCc2cc(F)c(C(F)(F)F)c(F)c2)C(=O)N2C[C@H](OCC)C[C@H]2C(=O)NC2(CCC2)C(=O)N(C)[C@@H](C2CCCC2)C(=O)N1C [PP1702] |  |  | 0.0049 | A (a compound having 10 or more and less than 20 is denoted as A) | A (a compound having 10 or more and less than 20 is denoted as A) |  |  |
| C#CC[C@H]1C(=O)N[C@@H]([C@@H](C)CC)C(=O)N(C)CC(=O)N(C)[C@H]2C/C=C\CCN(C2=O)[C@@H](Cc2ccc(C(F)(F)F)cc2)C(=O)N(C)CC(=O)N[C@@H](CCc2cc(F)c(C(F)(F)F)c(F)c2)C(=O)N2C[C@@H](C)C[C@H]2C(=O)NC2(CC(C)(C)C2)C(=O)N(C)[C@@H](C2CCCC2)C(=O)N(C)[C@H](C(=O)N(C)CC)CC(=O)N1C [PP2075] | A (a compound having 10 or more and less than 20 is denoted as A) | A (a compound having 10 or more and less than 20 is denoted as A) | 0.0118 |  |  |  |  |
| CCC[C@H]1C(=O)N[C@@H]([C@@H](C)CC)C(=O)N(C)CC(=O)N(C)[C@H]2C/C=C\CCN(C2=O)[C@@H](Cc2ccc(C(F)(F)F)cc2)C(=O)N(C)CC(=O)N[C@@H](CCc2cc(Cl)c3sccc3c2)C(=O)N2C[C@H](OCC)C[C@H]2C(=O)NC2(CC(C)(C)C2)C(=O)N(C)[C@@H](C2CCCC2)C(=O)N(C)[C@H](C(=O)N(C)C)CC(=O)N1C [PP2946] |  |  | 0.0053 |  |  | A (a compound having 10 or more and less than 20 is denoted as A) | A (a compound having 10 or more and less than 20 is denoted as A) |
| CC[C@H](C)[C@@H]1NC(=O)[C@H](CC(C)C)N(C)C(=O)C[C@@H](C(=O)N2CCOCC2)N(CC)C(=O)[C@H](C2CCCC2)N(C)C(=O)C2(CCCC2)NC(=O)[C@@H]2CCCN2C(=O)[C@H](CCc2ccc(C(F)(F)F)c(Cl)c2)NC(=O)CN(C)C(=O)[C@H](Cc2ccc(F)cc2)N2CCCCC[C@@H](C2=O)N(C)C(=O)CN(C)C1=O [PP0970] |  |  | 0.341 |  |  | B (a compound having 3 or more and less than 10 is denoted as B) | B (a compound having 3 or more and less than 10 is denoted as B) |
| CCC[C@H]1C(=O)N[C@@H]([C@@H](C)CC)C(=O)N(C)CC(=O)N(C)CC(=O)N(CCC)[C@@H](Cc2ccc(C(F)(F)F)cc2)C(=O)N(C)CC(=O)N[C@@H](CCc2ccc(C(F)(F)F)c(Cl)c2)C(=O)N2CC(F)(F)C[C@H]2C(=O)NC2(CCCC2)C(=O)N(C)[C@@H](C2CCCC2)C(=O)N(C)[C@H](C(=O)N2CCOCC2)CC(=O)N1C [PP0201] ([NMeNva]I[Sar][Sar][NPrPhe(4-CF3)][Sar][hPhe(3-Cl-4-CF3)][Pro(4,4-F2)][Ac5c][NMeGly(cPent)][NMeD]-Morpholide; lactam N-11) |  |  | 0.0034 |  |  | C (A compound having a KD ratio of 0.1 or more and less than 3 is denoted as C) | B (a compound having 3 or more and less than 10 is denoted as B) |
| CCO[C@@H]1C[C@H]2C(=O)NC3(CC(F)(F)C3)C(=O)N(C)[C@@H](C3CCCC3)C(=O)N(C)C(C(C)C)CC(=O)N(C)[C@@H](CC3CC3)C(=O)N[C@@H]([C@@H](C)CC)C(=O)N(C)CC(=O)N(C)[C@H]3C/C=C\CCN(C3=O)[C@@H](Cc3ccc(C(F)(F)F)cc3)C(=O)N(C)CC(=O)N[C@@H](CCc3cc(F)c(C(F)(F)F)c(F)c3)C(=O)N2C1 (stereo partly drawn) [PP1598] |  |  | 0.0366 | A (a compound having 10 or more and less than 20 is denoted as A) | A (a compound having 10 or more and less than 20 is denoted as A) |  |  |
| CCO[C@@H]1C[C@H]2C(=O)N(C)C3(CC(C)(C)C3)C(=O)N(C)[C@@H](C3CCCC3)C(=O)N(C)[C@H](C(=O)N(C)C)CC(=O)N(C)[C@H]3CCC/C=C/c4ccc(cc4)C[C@@H](C(=O)N(C)CC(=O)N[C@@H](CCc4cc(F)c(C(F)(F)F)c(F)c4)C(=O)N2C1)N1CC/C=C\C[C@@H](C1=O)N(C)C(=O)CN(C)C(=O)[C@H]([C@@H](C)CC)NC3=O [PP3060] |  |  | 0.0027 |  |  | B (a compound having 3 or more and less than 10 is denoted as B) | B (a compound having 3 or more and less than 10 is denoted as B) |
| CC[C@H](C)[C@@H]1NC(=O)[C@@H](CC(C)C)N(C)C(=O)C[C@@H](C(=O)N(C)C)N(C)C(=O)[C@@H](C2CCCC2)N(C)C(=O)C2(CCCC2)NC(=O)[C@@H]2CCCN2C(=O)[C@H](CCc2ccc(C(F)(F)F)c(Cl)c2)NC(=O)CN(C)C(=O)[C@@H](Cc2ccc(C)cc2)N2CC/C=C\CCN(CC2=O)C(=O)CN(C)C1=O [PP0618] | C (A compound having a KD ratio of 0.1 or more and less than 3 is denoted as C) | C (A compound having a KD ratio of 0.1 or more and less than 3 is denoted as C) | 0.0791 |  |  |  |  |
| CC[C@H](C)[C@@H]1NC(=O)[C@H](CC(C)C)N(C)C(=O)C[C@@H](C(=O)N(C)C)N(C)C(=O)[C@H](C2CCCC2)N(C)C(=O)C2(CCC2)NC(=O)[C@@H]2CCCN2C(=O)[C@H](CCc2cc(F)c(C(F)(F)F)c(F)c2)NC(=O)CN(C)C(=O)[C@H](Cc2ccc(C(F)(F)F)cc2)N2CCCCC[C@@H](C2=O)N(C)C(=O)CN(C)C1=O [PP0512] | B (a compound having 3 or more and less than 10 is denoted as B) | B (a compound having 3 or more and less than 10 is denoted as B) | 0.0294 |  |  |  |  |
| CCC(CC)[C@H]1C(=O)N(C)[C@H](C(=O)N(C)C)CC(=O)N(C)[C@@H](COC)C(=O)N[C@@H]([C@@H](C)CC)C(=O)N(C)CC(=O)N(C)[C@H]2C/C=C\CCN(C2=O)[C@@H](Cc2ccc(C(F)(F)F)cc2)C(=O)N(C)CC(=O)N[C@@H](CCc2ccc(C(F)(F)F)c(Cl)c2)C(=O)N2CC3(CC3)C[C@H]2C(=O)NC2(CC(C)(C)C2)C(=O)N1C [PP2965] |  |  | 0.0271 |  |  | A (a compound having 10 or more and less than 20 is denoted as A) | AA (a compound having 20 or more is denoted as AA) |
| CCO[C@@H]1C[C@H]2C(=O)NC3(CCC3)C(=O)N(C)[C@@H](C3CCCC3)C(=O)N(C)[C@H](C(=O)N(C)C)CC(=O)N(C)[C@H]3CCCCCCc4ccc(cc4)C[C@@H](C(=O)N(C)CC(=O)N[C@@H](CCc4ccc(C(F)(F)F)c(OC)c4)C(=O)N2C1)N1CC/C=C\C[C@@H](C1=O)N(C)C(=O)CN(C)C(=O)[C@H]([C@@H](C)CC)NC3=O [PP2264] | A (a compound having 10 or more and less than 20 is denoted as A) | AA (a compound having 20 or more is denoted as AA) | 0.0131 |  |  |  |  |
| CCCN(C)C(=O)[C@@H]1CC(=O)N(C)[C@@H](C(C)C)C(=O)N[C@@H]([C@@H](C)CC)C(=O)N(C)CC(=O)N(C)[C@H]2C/C=C\CCN(C2=O)[C@@H](Cc2ccc(C(F)(F)F)cc2)C(=O)N(C)CC(=O)N[C@@H](CCc2ccc(C(F)(F)F)c(OC)c2)C(=O)N2C[C@@H](C)C[C@H]2C(=O)NC2(CCC2)C(=O)N(C)[C@@H](C2CCCC2)C(=O)N1C [PP2067] | A (a compound having 10 or more and less than 20 is denoted as A) | AA (a compound having 20 or more is denoted as AA) | 0.0177 |  |  |  |  |
| CCC[C@H]1C(=O)N[C@@H]([C@@H](C)CC)C(=O)N(C2CC2)CC(=O)N(C)[C@H]2C/C=C\CCN(C2=O)[C@@H](Cc2ccc(C)cc2)C(=O)N(C)CC(=O)N[C@@H](CCc2cc(F)c(C(F)(F)F)c(F)c2)C(=O)N2C[C@H](OCC)C[C@H]2C(=O)N(C)C2(CCC2)C(=O)N(C)[C@@H](C2CCCC2)C(=O)N(C)[C@H](C(=O)N2CCCC2)CC(=O)N1C [PP3113] |  |  | 0.0061 |  |  | A (a compound having 10 or more and less than 20 is denoted as A) | A (a compound having 10 or more and less than 20 is denoted as A) |
